Source: patent EP1561465A2, “Methods of use of fluoroquinolone compounds against bacteria” (LG Life Sciences, Ltd., priority 1999, dated 2001)
Values after ≈ are worked out from the molar mass of the structure shown. Where two headings read alike, the source gives them in different places.

What was measured:
Type in all cases: cell-based
Campylobacter jejuni = test: MIC by agar dilution (NCCLS M7-A4), 5% sheep blood, microaerophilic 48 h; settings: Campylobacter jejuni (n=91)
Aeromonas spp. = test: MIC by agar dilution (NCCLS M7-A4), 288 enteropathogenic isolates, gemifloxacin and 15 other antimicrobials; settings: Aeromonas spp. N= 16
Hafnia alvei = test: as above; settings: Hafnia alvei N= 32
Enterococcus faecalis = test: MIC by agar macrodilution (NCCLS), 373 Gram positive isolates, Athens 1998
Escherichia coli [1] = test: MIC by agar dilution (NCCLS), 322 nosocomial Gram negative isolates, Athens 1998; settings: Escherichia coli; n = 57 isolates
Acinetobacter spp. = test: as above; settings: n = 38 strains
Enterococcus faecium = test: MIC by NCCLS broth microdilution, 1100 Japanese clinical isolates 1997-1998; settings: for MIC: Enterococcus faecium
Streptococcus pneumoniae = test: MIC by two-fold serial agar dilution, Sensitivity Disk agar-N (Kitasato isolates); settings: for MIC90: read-out: MIC90; for MIC: read-out: MIC Range
Escherichia coli [2] = test: MIC by NCCLS broth microdilution, 1100 Japanese clinical isolates 1997-1998; settings: for MIC50 / MIC90: Escherichia coli
Enterobacter aerogenes = test: as above; settings: Enterobacter aerogenes (n=35)
[3] = Escherichia coli ciprofloxacin susceptible (n=37)

## Cc1c(F)c(N2CCNC(C)C2)cc2c1c(=O)c(C(=O)O)cn2C1CC1 (stereo not shown) [Grepafloxacin, grepafloxacin]
Campylobacter jejuni
  % Susceptible: 31.86%
  MIC50: 32 µg/mL (≈ 89 µM)
  MIC90: 64 µg/mL (≈ 178 µM)
  MIC Range: 0.03 to 128 µg/mL
Aeromonas spp.
  MIC (mg/L) Range: ≤0.015 to 0.12 mg/L
Aeromonas spp.; read-out: MIC (mg/L) 50%
  MIC: 0.03 mg/L (≈ 0.0835 µM)
Aeromonas spp.; read-out: MIC (mg/L) 90%
  MIC: 0.06 mg/L (≈ 0.167 µM)
Hafnia alvei; 24 h, read-out: MIC (mg/L) Range
  MIC: 0.015 to 0.06 mg/L (≈ 0.0417 to 0.167 µM)
Hafnia alvei; read-out: MIC (mg/L) 50%
  MIC: 0.03 mg/L (≈ 0.0835 µM)
Hafnia alvei; read-out: MIC (mg/L) 90%
  MIC: 0.06 mg/L (≈ 0.167 µM)
Enterococcus faecalis
  MIC distribution (µg/ml) 0.03: 0
  MIC distribution (µg/ml) 0.06: 0
  MIC distribution (µg/ml) 0.125: 0
  MIC distribution (µg/ml) 0.25: 2
  MIC distribution (µg/ml) 1: 22
  MIC distribution (µg/ml) 2: 21
  MIC distribution (µg/ml) 4: 6
  MIC distribution (µg/ml) 8: 4
  MIC distribution (µg/ml) 16: 2
  MIC distribution (µg/ml) ≤0.015: 0
  MIC distribution (µg/ml) ≥32: 19
Enterococcus faecalis; Enterococcus faecalis, n = 81 isolates, read-out: MIC50
  MIC50: 2 µg/mL (≈ 5.56 µM)
Enterococcus faecalis; Enterococcus faecalis, n = 81 isolates, read-out: MIC90
  MIC90: ≥ 32 µg/mL
Enterococcus faecalis; number of isolates at MIC 0.5 µg/ml, n = 81
  MIC distribution (µg/ml) 0.5: 5
Escherichia coli [1]
  MIC50: 0.06 µg/mL (≈ 0.167 µM)
  MIC90: 0.25 µg/mL (≈ 0.696 µM)
Acinetobacter spp.; Acinetobacter
  MIC50: 2 µg/mL (≈ 5.56 µM)
  MIC90: 64 µg/mL (≈ 178 µM)
Acinetobacter spp.
  MIC Range: ≤0.03 to 64 µg/mL

## NC1CCN(c2nc3c(cc2F)c(=O)c(C(=O)O)cn3-c2ccc(F)cc2F)C1 (stereo not shown) [Tosufloxacin, tosufloxacin]
Enterococcus faecium; Enterococcus faecium (n=39)
  MIC50: > 16 µg/mL
  MIC90: > 16 µg/mL
Enterococcus faecium; Enterococcus faecium (vanA) vancomycin resistant, strain TMS1
  MIC: > 16 µg/mL
Enterococcus faecium; Enterococcus faecium (vanA) vancomycin resistant, strain TMS2
  MIC: 2 µg/mL (≈ 4.95 µM)
Enterococcus faecium; Enterococcus faecium (vanA) vancomycin resistant, strain TMS3
  MIC: > 16 µg/mL
Enterococcus faecium; Enterococcus faecium (vanA) vancomycin resistant, strain TMS4
  MIC: > 16 µg/mL
Enterococcus faecium; Enterococcus faecium (vanA) vancomycin resistant, strain TMS5
  MIC: 4 µg/mL (≈ 9.89 µM)
Enterococcus faecium; Enterococcus laecium (van B) vancomycin resistant, strain TMS6
  MIC: > 16 µg/mL
Enterococcus faecium; Enterococcus laecium (van B) vancomycin resistant, strain TMS7
  MIC: > 16 µg/mL
Streptococcus pneumoniae; Ciprofloxacin-susceptible (94)
  MIC50: 0.125 µg/mL (≈ 0.309 µM)
Streptococcus pneumoniae; Erythromycin-resistant (37)
  MIC50: 0.125 µg/mL (≈ 0.309 µM)
Streptococcus pneumoniae; Minocycline-resistant (37)
  MIC50: 0.125 µg/mL (≈ 0.309 µM)
Streptococcus pneumoniae; Streptococcus pneumoniae
  MIC50: 0.125 µg/mL (≈ 0.309 µM)
Streptococcus pneumoniae; Streptococcus pneumoniae, 18 h, Ciprofloxacin-resistant (21), ciprofloxacin MIC ≥8 µg/ml
  MIC90: 8 µg/mL (≈ 19.8 µM)
Streptococcus pneumoniae; Streptococcus pneumoniae, 18 h, Ciprofloxacin-resistant (21)
  MIC: 0.25 to 16 µg/mL (≈ 0.618 to 39.6 µM)
Streptococcus pneumoniae; Streptococcus pneumoniae, 18 h, Ciprofloxacin-susceptible (94)
  MIC: 0.063 to 0.5 µg/mL (≈ 0.156 to 1.24 µM)
Streptococcus pneumoniae; Streptococcus pneumoniae, 18 h, Erythromycin-resistant (37)
  MIC: 0.063 to 4 µg/mL (≈ 0.156 to 9.89 µM)
Streptococcus pneumoniae; Streptococcus pneumoniae, 18 h, Minocycline-resistant (37)
  MIC: 0.063 to 4 µg/mL (≈ 0.156 to 9.89 µM)
Streptococcus pneumoniae; Streptococcus pneumoniae, 18 h, Penicillin-resistant (19)
  MIC: 0.063 to 0.5 µg/mL (≈ 0.156 to 1.24 µM)
Streptococcus pneumoniae; Streptococcus pneumoniae, Ciprofloxacin-resistant (21), read-out: MIC50
  MIC50: 4 µg/mL (≈ 9.89 µM)
Streptococcus pneumoniae; Streptococcus pneumoniae, Ciprofloxacin-susceptible (94)
  MIC90: 0.25 µg/mL (≈ 0.618 µM)
Streptococcus pneumoniae; Streptococcus pneumoniae, Erythromycin-resistant (37)
  MIC90: 0.5 µg/mL (≈ 1.24 µM)
Streptococcus pneumoniae; Streptococcus pneumoniae, Minocycline-resistant (37)
  MIC90: 0.5 µg/mL (≈ 1.24 µM)
Streptococcus pneumoniae; Streptococcus pneumoniae, Penicillin-resistant (19)
  MIC90: 0.25 µg/mL (≈ 0.618 µM)
Escherichia coli [2]; [3]
  MIC Range: ≤0.008 to 0.25 µg/mL
  MIC50: 0.032 µg/mL (≈ 0.0791 µM)
  MIC90: 0.032 µg/mL (≈ 0.0791 µM)
Escherichia coli [2]; Escherichia coli ciprofloxacin resistant (n=5)
  MIC50: 32 µg/mL (≈ 79.1 µM)
Escherichia coli [2]; Escherichia coli ciprofloxacin resistant (n=5), values marked *: MIC80 value
  MIC90: 32 µg/mL (≈ 79.1 µM)
Enterobacter aerogenes
  MIC Range: 0.016 to 0.125 µg/mL
Enterobacter aerogenes; Klebsiella aerogenes
  MIC50: 0.016 µg/mL (≈ 0.0396 µM)
  MIC90: 0.063 µg/mL (≈ 0.156 µM)
